Test results taken from patent US20230123334A1, “AMINO LIPID COMPOUND, PREPARATION METHOD THEREFOR, AND APPLICATION THEREOF” (SHENZHEN SHENXIN BIOTECHNOLOGY CO., LTD., priority 2020, published 2023).

Columns and labels:
HEK293 cells [1] = test: Preliminary screening as DNA vectors, GFP transfection of HEK293 cells; assay type: cell-based; conditions: HEK293 cells; lipid/DOPE liposome with 75 ng plasmid DNA (psin-EGFP-IRES-Puro); number of cells expressing GFP divided by total number of nuclei (Hoechst)
Outline: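 First, amino lipid and DOPE were vortexed in sodium acetate buffer (pH 5.6) to form liposomes. Next, these were held with 75 ng EGFP plasmid at room temperature for 30 min. Finally, HEK293 cells were added, cultured at 37° C., Hoechst-stained, and GFP+/total nuclei scored by imaging.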

HEK293 cells [2] = test: Preliminary screening as mRNA vectors, EGFP mRNA transfection of HEK293 cells; assay type: cell-based; conditions: HEK293 cells, 96-well plates, EGFP mRNA 50 ng per well; percentage of GFP fluorescent cells relative to total number of cells (Hoechst)
Outline: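 Screening format: EGFP mRNA transfection (50 ng/well) into HEK293 in 10% FBS-supplemented DMEM. Percent green fluorescent cells, normalised to Hoechst nuclear count, gave the value; Lipofectamine2000 was the reference transfectant.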

| Compound | Absolute DNA transfection efficiency in HEK293 cells (HEK293 cells [1]) [%] | Absolute mRNA transfection efficiency in HEK293 cells (HEK293 cells [2]) [%] |
| --- | --- | --- |
| CCCCCCCCCCCCCCCSc1nc(NCCN2CCCCC2)nc(SCCCCCCCCCCCCCC)n1 [Compound S14S15D4] | 0.7 | 0.1 |
| CCCCCCCCCCCCCCCSc1nc(NCCN2CCN(C)CC2)nc(SCCCCCCCCCCCCCC)n1 [Compound S14S15D5] | 0.0 | 0.0 |
| CCCCCCCCCCCCCCCSc1nc(NCCCN(C)C)nc(SCCCCCCCCCCCCCC)n1 [Compound S14S15D6] | 0.2 | 0.1 |
| CCCCCCCCCCCCCCCSc1nc(NCCN(CC)CC)nc(SCCCCCCCCCCCCCC)n1 [Compound S14S15D7] | 0.6 | 0.4 |
| CCCCCCCCCCCCCCCSc1nc(NCCCN2CCOCC2)nc(SCCCCCCCCCCCCCC)n1 [Compound S14S15D8] | 0.0 | 0.0 |
| CCCCCCCCCCCCCCCSc1nc(NCCCN2CCN(C)CC2)nc(SCCCCCCCCCCCCCC)n1 [Compound S14S15D9] | 0.0 | 0.0 |
| CCCCCCCCCCCCCCCSc1nc(NCC2CCN(C)CC2)nc(SCCCCCCCCCCCCCC)n1 [Compound S14S15D10] | 0.3 | 0.5 |
| CCCCCCCCCCCCCCCCSc1nc(NCCN(C)C)nc(SCCCCCCCCCCCCCC)n1 [Compound S14S16D1] | 0.0 | 0.0 |
| CCCCCCCCCCCCCCCCSc1nc(NCCN2CCOCC2)nc(SCCCCCCCCCCCCCC)n1 [Compound S14S16D2] | 0.0 | 0.0 |
| CCCCCCCCCCCCCCCCSc1nc(NCCN2CCCC2)nc(SCCCCCCCCCCCCCC)n1 [Compound S14S16D3] | 0.4 | 0.2 |
| CCCCCCCCCCCCCCCCSc1nc(NCCN2CCCCC2)nc(SCCCCCCCCCCCCCC)n1 [Compound S14S16D4] | 0.6 | 0.0 |
| CCCCCCCCCCCCCCCCSc1nc(NCCN2CCN(C)CC2)nc(SCCCCCCCCCCCCCC)n1 [Compound S14S16D5] | 0.1 | 0.2 |
| CCCCCCCCCCCCCCCCSc1nc(NCCCN(C)C)nc(SCCCCCCCCCCCCCC)n1 [Compound S14S16D6] | 1.2 | 0.9 |
| CCCCCCCCCCCCCCCCSc1nc(NCCN(CC)CC)nc(SCCCCCCCCCCCCCC)n1 [Compound S14S16D7] | 1.1 | 1.8 |
| CCCCCCCCCCCCCCCCSc1nc(NCCCN2CCOCC2)nc(SCCCCCCCCCCCCCC)n1 [Compound S14S16D8] | 0.0 | 0.0 |
| CCCCCCCCCCCCCCCCSc1nc(NCCCN2CCN(C)CC2)nc(SCCCCCCCCCCCCCC)n1 [Compound S14S16D9] | 0.0 | 0.0 |
| CCCCCCCCCCCCCCCCSc1nc(NCC2CCN(C)CC2)nc(SCCCCCCCCCCCCCC)n1 [Compound S14S16D10] | 2.7 | 0.8 |
| CCCCCCCCCCCCCCCCCCSc1nc(NCCN(C)C)nc(SCCCCCCCCCCCCCC)n1 [Compound S14S18D1] | 0.0 | 0.0 |
| CCCCCCCCCCCCCCCCCCSc1nc(NCCN2CCOCC2)nc(SCCCCCCCCCCCCCC)n1 [Compound S14S18D2] | 0.2 | 0.0 |
| CCCCCCCCCCCCCCCCCCSc1nc(NCCN2CCCC2)nc(SCCCCCCCCCCCCCC)n1 [Compound S14S18D3] | 2.8 | 0.1 |
| CCCCCCCCCCCCCCCCCCSc1nc(NCCN2CCCCC2)nc(SCCCCCCCCCCCCCC)n1 [Compound S14S18D4] | 2.5 | 0.8 |
| CCCCCCCCCCCCCCCCCCSc1nc(NCCN2CCN(C)CC2)nc(SCCCCCCCCCCCCCC)n1 [Compound S14S18D5] | 0.2 | 1.0 |
| CCCCCCCCCCCCCCCCCCSc1nc(NCCCN(C)C)nc(SCCCCCCCCCCCCCC)n1 [Compound S14S18D6] | 1.2 | 0.2 |

| Compound | Absolute DNA transfection efficiency in HEK293 cells (HEK293 cells [1]) [%] | Absolute mRNA transfection efficiency in HEK293 cells (HEK293 cells [2]) [%] |
| --- | --- | --- |
| CCCCCCCCCCCCCCCCCCSc1nc(NCCN(CC)CC)nc(SCCCCCCCCCCCCCC)n1 [Compound S14S18D7] | 0.9 | 2.7 |
| CCCCCCCCCCCCCCCCCCSc1nc(NCCCN2CCOCC2)nc(SCCCCCCCCCCCCCC)n1 [Compound S14S18D8] | 0.2 | 0.3 |
| CCCCCCCCCCCCCCCCCCSc1nc(NCCCN2CCN(C)CC2)nc(SCCCCCCCCCCCCCC)n1 [Compound S14S18D9] | 0.5 | 0.6 |
| CCCCCCCCCCCCCCCCCCSc1nc(NCC2CCN(C)CC2)nc(SCCCCCCCCCCCCCC)n1 [Compound S14S18D10] | 1.7 | 1.5 |
| CCCCCCCCCCCCCCCSc1nc(NCCN(C)C)nc(SCCCCCCCCCCCCCCC)n1 [Compound S15S15D1] | 1.0 | 0.5 |
| CCCCCCCCCCCCCCCSc1nc(NCCN2CCOCC2)nc(SCCCCCCCCCCCCCCC)n1 [Compound S15S15D2] | 0.0 | 0.0 |
| CCCCCCCCCCCCCCCSc1nc(NCCN2CCCC2)nc(SCCCCCCCCCCCCCCC)n1 [Compound S15S15D3] | 0.0 | 0.2 |
| CCCCCCCCCCCCCCCSc1nc(NCCN2CCCCC2)nc(SCCCCCCCCCCCCCCC)n1 [Compound S15S15D4] | 1.5 | 1.5 |
| CCCCCCCCCCCCCCCSc1nc(NCCN2CCN(C)CC2)nc(SCCCCCCCCCCCCCCC)n1 [Compound S15S15D5] | 0.3 | 0.3 |
| CCCCCCCCCCCCCCCSc1nc(NCCCN(C)C)nc(SCCCCCCCCCCCCCCC)n1 [Compound S15S15D6] | 0.4 | 0.9 |
| CCCCCCCCCCCCCCCSc1nc(NCCN(CC)CC)nc(SCCCCCCCCCCCCCCC)n1 [Compound S15S15D7] | 0.6 | 0.5 |
| CCCCCCCCCCCCCCCSc1nc(NCCCN2CCOCC2)nc(SCCCCCCCCCCCCCCC)n1 [Compound S15S15D8] | 0.0 | 0.2 |
| CCCCCCCCCCCCCCCSc1nc(NCCCN2CCN(C)CC2)nc(SCCCCCCCCCCCCCCC)n1 [Compound S15S15D9] | 0.4 | 0.5 |
| CCCCCCCCCCCCCCCSc1nc(NCC2CCN(C)CC2)nc(SCCCCCCCCCCCCCCC)n1 [Compound S15S15D10] | 1.0 | 0.3 |
| CCCCCCCCCCCCCCCCSc1nc(NCCN(C)C)nc(SCCCCCCCCCCCCCCC)n1 [Compound S15S16D1] | 1.7 | 0.7 |
| CCCCCCCCCCCCCCCCSc1nc(NCCN2CCOCC2)nc(SCCCCCCCCCCCCCCC)n1 [Compound S15S16D2] | 0.0 | 0.7 |
| CCCCCCCCCCCCCCCCSc1nc(NCCN2CCCC2)nc(SCCCCCCCCCCCCCCC)n1 [Compound S15S16D3] | 0.1 | 0.2 |
| CCCCCCCCCCCCCCCCSc1nc(NCCN2CCCCC2)nc(SCCCCCCCCCCCCCCC)n1 [Compound S15S16D4] | 2.0 | 3.2 |
| CCCCCCCCCCCCCCCCSc1nc(NCCN2CCN(C)CC2)nc(SCCCCCCCCCCCCCCC)n1 [Compound S15S16D5] | 0.2 | 0.2 |
| CCCCCCCCCCCCCCCCSc1nc(NCCCN(C)C)nc(SCCCCCCCCCCCCCCC)n1 [Compound S15S16D6] | 0.2 | 0.4 |
| CCCCCCCCCCCCCCCCSc1nc(NCCN(CC)CC)nc(SCCCCCCCCCCCCCCC)n1 [Compound S15S16D7] | 0.6 | 0.4 |
| CCCCCCCCCCCCCCCCSc1nc(NCCCN2CCOCC2)nc(SCCCCCCCCCCCCCCC)n1 [Compound S15S16D8] | 0.0 | 0.0 |
